The values below come from patent publication EP4711355A1, “CRYSTAL FORM OF LIPOPROTEIN COMPOUND AND PREPARATION METHOD THEREFOR” (Jiangsu Hengrui Pharmaceuticals Co., Ltd., priority 2023, dated 2024).

Each structure is given as a SMILES string. Structures can show the parent of a compound that is named as a salt.

The nature of series [1]: DVS hygroscopicity test (dynamic moisture sorption). It counts as physicochemical. The conditions noted are these: at 80% RH; listed as hydrochloride crystal form a. How it is done: DVS stands for dynamic moisture sorption: using the Surface Measurement Systems instrument, humidity started at 50% and the humidity range investigated was 0%-95% with a step of 10%. The judgment standard is that the mass change of each gradient dM/dT is ≤ 0.002%, TMAX is 360 min, and there are two cycles.

Series [2] in a line: Long-term accelerated stability test (Test Example 3), sealed in aluminum foil bags. It counts as physicochemical.

Regarding `O=C(O)[C@@H](Cc1cccc(CN(CCOc2cccc(C[C@H](C(=O)O)[C@H]3CCNC3)c2)Cc2cccc(C[C@H](C(=O)O)[C@H]3CCNC3)c2)c1)[C@H]1CCNC1` [hydrochloride (1:1) crystal form a, (2S)-3-(3-{[(2-{3-[(2S)-2-carboxyl-2-[(3R)-pyrrolidin-3-yl]ethyl]phenoxy}ethyl)({3-[(2S)-2-carboxyl-2-[(3R)-pyrrolidin-3-yl]ethyl]phenyl}methyl)amino]methyl}phenyl)-2-[(3R)-pyrrolidin-3-yl]propionic acid], the “DVS hygroscopicity weight gain” value in series [1] is reported as 30%. Further, the Crystal form result in series [2] (0 day) is listed as “Hydrochloride crystal form a”; in series [2] (25°C-60%RH, 1 month), “Unchanged”; in series [2] (25°C-60%RH, 3 months), “Deliquescent”; in series [2] (25°C-60%RH, 6 months), “Deliquescent”; in series [2] (25°C-60%RH, 7 days) it was “Unchanged”; in series [2] (25°C-60%RH, 14 days) it was “Unchanged”. Besides, the Crystal form result in series [2] (40°C-75%RH, 1 month) is “Deliquescent”; in series [2] (40°C-75%RH, 3 months), “Deliquescent”; in series [2] (40°C-75%RH, 6 months) it was “Deliquescent”; in series [2] (40°C-75%RH, 7 days) it was “Unchanged”; in series [2] (40°C-75%RH, 14 days), “Unchanged”. Further, the “Purity (%)” value is given as 99.9% in series [2] (0 day); 99.9% in series [2] (25°C-60%RH, 1 month); 99.7% in series [2] (25°C-60%RH, 3 months); 98.5% in series [2] (25°C-60%RH, 6 months); 99.9% in series [2] (25°C-60%RH, 7 days); 99.9% in series [2] (25°C-60%RH, 14 days). Also, the “Purity (%)” value in series [2] (40°C-75%RH, 1 month) is given as 97.7%; in series [2] (40°C-75%RH, 3 months), 95.2%; in series [2] (40°C-75%RH, 6 months) it was 94.8%; in series [2] (40°C-75%RH, 7 days) it was 99.8%; in series [2] (40°C-75%RH, 14 days) it was 98.8%. For the same compound, the physicochemical stability result in series [2] (25°C/60%RH and 40°C/75%RH for 6 months) is “slightly less stable”.
